# According to ChEMBL document CHEMBL1130294, “Subsite requirements for peptide aldehyde inhibitors of human calpain I” (Bioorg Med Chem Lett, 1997):
# Non-standard residues stand in square brackets, D forms with d. Residues, ends and D or L forms follow the SMILES beside them. *: point of attachment. Nle = CCCC[C@H](N)C(=O)O; Cbz = O=C(OCc1ccccc1)*; Boc = CC(C)(C)OC(=O)*; OtBu = CC(C)(C)O*; tBu = CC(C)(C)*
# Biological target: T1, Calpain-1 catalytic subunit (Homo sapiens, UniProt P07384)
# T1 sequence (P07384 whole entry): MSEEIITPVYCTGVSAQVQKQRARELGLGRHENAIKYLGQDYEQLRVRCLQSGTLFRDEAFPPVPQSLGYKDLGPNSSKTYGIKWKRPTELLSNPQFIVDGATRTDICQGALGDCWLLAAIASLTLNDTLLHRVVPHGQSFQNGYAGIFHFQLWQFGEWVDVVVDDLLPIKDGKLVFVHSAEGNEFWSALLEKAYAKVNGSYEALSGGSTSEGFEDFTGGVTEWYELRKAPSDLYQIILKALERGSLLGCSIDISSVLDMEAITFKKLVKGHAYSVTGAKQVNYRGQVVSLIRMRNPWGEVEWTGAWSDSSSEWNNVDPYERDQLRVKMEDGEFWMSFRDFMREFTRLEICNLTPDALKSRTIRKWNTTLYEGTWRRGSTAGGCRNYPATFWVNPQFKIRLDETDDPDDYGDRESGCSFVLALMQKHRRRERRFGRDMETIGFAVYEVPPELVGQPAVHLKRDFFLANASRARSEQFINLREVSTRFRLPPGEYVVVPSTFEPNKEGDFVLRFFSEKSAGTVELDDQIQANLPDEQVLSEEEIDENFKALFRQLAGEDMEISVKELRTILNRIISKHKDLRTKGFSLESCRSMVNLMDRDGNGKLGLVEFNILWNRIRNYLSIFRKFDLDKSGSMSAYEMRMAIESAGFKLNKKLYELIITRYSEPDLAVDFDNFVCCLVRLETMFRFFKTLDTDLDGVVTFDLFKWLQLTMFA
# Test: Inhibitory activity evaluated against recombinant human calpain 1
row,SMILES,IC50
1,CC(C)C[C@@H](C=O)NC(=O)[C@H](CC(C)C)NC(=O)OCC1c2ccccc2-c2ccccc21,11 nM
2,CC(C)C[C@@H](C=O)NC(=O)[C@H](CC(C)C)NC(=O)/C=C\C(=O)O,~10000 nM
3,CC(C)C[C@H](NC(=O)OCc1ccccc1)C(=O)N(C)[C@H](C=O)CC(C)C,> 1000 nM
4,CC(C)C[C@@H](C=O)NC(=O)[C@H](CC(C)C)NC(=O)OCc1ccc([N+](=O)[O-])cc1,8 nM
5,CC(=O)N[C@@H](CC(C)C)C(=O)N[C@H](C=O)CC(C)C,130 nM
6,CC(=O)N[C@@H](CC(C)C)C(=O)N[C@@H](CC(C)C)C(=O)N[C@@H](C=O)CC(C)C,62 nM
7,CC(C)C[C@H](C=O)NC(=O)OCc1ccccc1,10000 nM
8,CC(=O)N[C@@H](CC(C)C)C(=O)N[C@@H](CC(C)C)C(=O)N[C@H](C=O)CCCCNC(=O)OC(C)(C)C (Ac-Leu-Leu-Lys(Boc)-aldehyde),33 nM
9,CC(=O)N[C@@H](CC(C)C)C(=O)N[C@@H](CC(C)C)C(=O)N[C@H](C=O)Cc1ccccc1 (Ac-Leu-Leu-Phe-aldehyde),32 nM
10,CCCC[C@@H](C=O)NC(=O)[C@H](CC(C)C)NC(=O)[C@H](CC(C)C)NC(C)=O (Ac-Leu-Leu-[Nle]-aldehyde),12 nM
11,CC(=O)N[C@@H](COC(C)(C)C)C(=O)N[C@@H](CC(C)C)C(=O)N[C@H](C=O)CC(C)C (Ac-Ser(tBu)-Leu-Leu-aldehyde),37 nM
12,CC(C)C[C@@H](C=O)NC(=O)[C@H](CC(C)C)NC(=O)[C@H](CC(C)C)NC(=O)[C@H](C)NC(=O)OCc1ccccc1 (Cbz-ALLL-aldehyde),6 nM
13,CC(C)C[C@@H](C=O)NC(=O)[C@H](CC(C)C)NC(=O)[C@H](C)NC(=O)OCc1ccccc1 (Cbz-Ala-Leu-Leu-aldehyde),5 nM
14,CC(C)C[C@@H](C=O)NC(=O)[C@H](CCC(N)=O)NC(=O)OCc1ccccc1 (Cbz-Gln-Leu-aldehyde),370 nM

# Second part, the molecule after the results:
row,IC50,SMILES
1,> 10000 nM,CC(C)C[C@@H](C=O)NC(=O)[C@H](CC(C)C)N(C)C(=O)OCc1ccccc1
2,33 nM,CCCC[C@H](NC(=O)OCc1ccccc1)C(=O)N[C@H](C=O)CC(C)C
3,10 nM,CC(C)C[C@@H](C=O)NC(=O)[C@H](CC(C)C)NC(=O)[C@H](CC(C)C)NC(=O)c1ccc2ccccc2c1
4,> 10000 nM,CC(C)C[C@H](NC(=O)OCc1ccccc1)C(=O)NCCC=O
5,190 nM,CC(C)C[C@@H](C=O)NC(=O)[C@@H](NC(=O)OCc1ccccc1)[C@H](C)O
6,> 10000 nM,CC(C)C[C@@H](C=O)NC(=O)CCNC(=O)OCc1ccccc1
7,> 1000 nM,CC(C)C[C@@H](C=O)NC(=O)[C@H](CC(C)C)NC(=O)c1ccccc1C(=O)O
8,15 nM,CC(=O)N[C@@H](CC(C)C)C(=O)N[C@@H](CC(C)C)C(=O)N[C@H](C=O)CC(C)C
9,8 nM,CC(C)C[C@@H](C=O)NC(=O)[C@H](CC(C)C)NC(=O)OCc1ccccc1
10,> 1000 nM,CC(C)C[C@H](NC(=O)OCc1ccccc1)C(=O)N[C@H](CC=O)Cc1ccccc1
11,72 nM,CC(=O)N[C@@H](CC(C)C)C(=O)N[C@@H](CC(C)C)C(=O)N[C@H](C=O)CCCNC(=N)N
12,18 nM,CC(=O)N[C@@H](C)C(=O)N[C@@H](CC(C)C)C(=O)N[C@H](C=O)CC(C)C (Ac-Ala-Leu-Leu-aldehyde)
13,1100 nM,CC(=O)N[C@@H](CC(C)C)C(=O)N[C@@H](CC(C)C)C(=O)N[C@H](C=O)CCC(=O)OC(C)(C)C (Ac-Leu-Leu-Glu(OtBu)-aldehyde)
14,~1000 nM,CC(=O)N[C@@H](CC(C)C)C(=O)N[C@@H](CC(C)C)C(=O)NCC=O (Ac-Leu-Leu-Gly-aldehyde)
15,150 nM,CC(=O)N[C@@H](CC(C)C)C(=O)N[C@@H](CC(C)C)C(=O)N[C@H](C=O)Cc1c[nH]c2ccccc12 (Ac-Leu-Leu-Trp-aldehyde)
16,110 nM,CC(=O)N[C@H](C(=O)N[C@@H](Cc1ccccc1)C(=O)N[C@H](C=O)CC(C)C)C(C)C (Ac-Val-Phe-Leu-aldehyde)
17,25 nM,CC(C)C[C@@H](C=O)NC(=O)[C@H](CC(C)C)NC(=O)[C@H](CCC(=O)OC(C)(C)C)NC(=O)OCc1ccccc1 (Cbz-Glu(OtBu)-Leu-Leu-aldehyde)
